The record followed here is patent publication US20260234157A1, “COMPOUND AND METHOD FOR TARGETED DEGRADATION OF ANDROGEN RECEPTOR” (Gan & Lee Pharmaceuticals Co., Ltd., priority 2023, published 2026).

Residue numbers refer to the chain shown, from its start.

The target in the first assay is T1, AR protein (Homo sapiens, UniProt P10275, T878A).
T1 construct: degradation activity of the compounds disclosed in the present disclosure on AR protein in LNCaP cells; host or cells: LNCaP FGC
T1 sequence (P10275 1-920 T878A): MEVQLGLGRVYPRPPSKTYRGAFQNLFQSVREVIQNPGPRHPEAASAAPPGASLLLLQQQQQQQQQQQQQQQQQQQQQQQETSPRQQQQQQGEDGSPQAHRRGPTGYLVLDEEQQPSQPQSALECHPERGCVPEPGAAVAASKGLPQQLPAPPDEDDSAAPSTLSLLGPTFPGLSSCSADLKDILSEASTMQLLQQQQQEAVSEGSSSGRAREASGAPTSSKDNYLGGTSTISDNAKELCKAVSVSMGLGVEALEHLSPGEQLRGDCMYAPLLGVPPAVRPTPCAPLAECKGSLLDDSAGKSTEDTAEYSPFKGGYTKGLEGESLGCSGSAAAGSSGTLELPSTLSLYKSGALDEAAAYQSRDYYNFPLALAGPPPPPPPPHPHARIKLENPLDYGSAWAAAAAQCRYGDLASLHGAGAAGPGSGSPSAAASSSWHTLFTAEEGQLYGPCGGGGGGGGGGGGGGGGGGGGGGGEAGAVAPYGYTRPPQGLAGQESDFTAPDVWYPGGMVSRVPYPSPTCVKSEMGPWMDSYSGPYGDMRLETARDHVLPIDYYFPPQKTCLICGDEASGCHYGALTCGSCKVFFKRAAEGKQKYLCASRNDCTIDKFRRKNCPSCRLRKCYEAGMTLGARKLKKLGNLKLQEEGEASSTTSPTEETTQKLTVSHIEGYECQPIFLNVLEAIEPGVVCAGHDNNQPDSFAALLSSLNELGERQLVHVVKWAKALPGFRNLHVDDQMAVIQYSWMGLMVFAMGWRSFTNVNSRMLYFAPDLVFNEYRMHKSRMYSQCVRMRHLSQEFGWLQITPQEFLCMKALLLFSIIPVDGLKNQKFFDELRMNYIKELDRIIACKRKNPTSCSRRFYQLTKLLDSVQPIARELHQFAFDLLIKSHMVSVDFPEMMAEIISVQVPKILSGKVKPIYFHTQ
In words: Degradation of AR protein in LNCaP cells (Western blot). The settings on record: LNCaP cells, compound 10 nM, 8 hours, Western blot grayscale, GAPDH internal reference; read-out: Degradation rates of the AR protein in LNCaP cells, 10 nM (%). It counts as cell-based. The method, boiled down: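 Percent AR degradation was derived from GAPDH-normalised Western blot band intensities (infrared detection) in LNCaP lysates.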
Take `COc1cc(O[C@H]2C(C)(C)[C@H](NC(=O)c3ccc(N4CCC(C)(CN5CCC6(CC5)COc5c6ccc6c5CN(C5CCC(=O)NC5=O)C6=O)CC4)cc3)C2(C)C)ccc1C#N` (stereo partly drawn) [Compound 221]: the inhibition at 0.01 µM was 24%.

In the case of `N#Cc1ccc(O[C@H]2CC[C@H](NC(=O)c3ccc(N4CCC(C#N)(CN5CCC6(CC5)COc5c6ccc6c5C(=O)N(C5CCC(=O)NC5=O)C6=O)CC4)nn3)CC2)cc1Cl` (stereo partly drawn) [Compound 227], the inhibition at 0.01 µM turned out to be 45%.

The same assay, now with this note: LNCaP cells, compound 100 nM, 8 hours, Western blot grayscale, GAPDH internal reference; read-out: Degradation rates of the AR protein in LNCaP cells, 100 nM (%).
In the case of `COc1cc(O[C@H]2C(C)(C)[C@H](NC(=O)c3ccc(N4CCC(C)(CN5CCC6(CC5)COc5c6ccc6c5CN(C5CCC(=O)NC5=O)C6=O)CC4)cc3)C2(C)C)ccc1C#N` (stereo partly drawn) [Compound 221], the inhibition at 0.1 µM amounted to 76%.

With `N#Cc1ccc(O[C@H]2CC[C@H](NC(=O)c3ccc(N4CCC(C#N)(CN5CCC6(CC5)COc5c6ccc6c5C(=O)N(C5CCC(=O)NC5=O)C6=O)CC4)nn3)CC2)cc1Cl` (stereo partly drawn) [Compound 227], the inhibition at 0.1 µM stood at 62%.

Staying with this assay, now noted: LNCaP, 8 h, read-out: Degradation rates of the AR protein in LNCaP cells, 10 nM (%).
For the molecule `COc1cc(O[C@H]2CC[C@H](NC(=O)c3ccc(N4CCC(CN5CCC6(CC5)COc5c6ccc6c5C(=O)N(C5CCC(=O)NC5=O)C6=O)(OC)CC4)cc3)CC2)ccc1C#N` (stereo partly drawn) [Compound 219], the inhibition at 0.01 µM is -40%.

Staying with this assay, now noted: LNCaP, 8 h, read-out: Degradation rates of the AR protein in LNCaP cells, 100 nM (%).
Take `COc1cc(O[C@H]2CC[C@H](NC(=O)c3ccc(N4CCC(CN5CCC6(CC5)COc5c6ccc6c5C(=O)N(C5CCC(=O)NC5=O)C6=O)(OC)CC4)cc3)CC2)ccc1C#N` (stereo partly drawn) [Compound 219]: the inhibition at 0.1 µM was 21%.

Another assay has as its target T2, AR protein (Homo sapiens, UniProt P10275).
T2 construct: degradation activity of the compounds disclosed in the present disclosure on AR protein in VCaP cells; host or cells: VCaP
T2 sequence (P10275 1-920): T1 sequence (P10275 1-920 T878A) with A878T
Description: Degradation of AR protein in VCaP cells (Western blot). In kind it is cell-based. The following applies: compound at 10 nM, 8 hours, read-out: Degradation rate of the AR protein in VCaP cells, 10 nM (%). The essentials: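 Western blot readout: AR band grayscale normalised to GAPDH, used to derive degradation rate. Lysates came from VCaP cells exposed to compound for 8 h, with solvent controls run in parallel.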
For the molecule `COc1cc(O[C@H]2CC[C@H](NC(=O)c3ccc(N4CCC(CN5CCC6(CC5)COc5c6ccc6c5C(=O)N(C5CCC(=O)NC5=O)C6=O)(OC)CC4)cc3)CC2)ccc1C#N` (stereo partly drawn) [Compound 219], the inhibition at 0.01 µM was 11%.

In the case of `COc1cc(O[C@H]2C(C)(C)[C@H](NC(=O)c3ccc(N4CCC(C)(CN5CCC6(CC5)COc5c6ccc6c5CN(C5CCC(=O)NC5=O)C6=O)CC4)cc3)C2(C)C)ccc1C#N` (stereo partly drawn) [Compound 221], the inhibition at 0.01 µM was 16%.

Regarding `N#Cc1ccc(O[C@H]2CC[C@H](NC(=O)c3ccc(N4CCC(C#N)(CN5CCC6(CC5)COc5c6ccc6c5C(=O)N(C5CCC(=O)NC5=O)C6=O)CC4)nn3)CC2)cc1Cl` (stereo partly drawn) [Compound 227], the inhibition at 0.01 µM came out at 24%.

Still in this assay, the particulars now being: compound at 100 nM, 8 hours, read-out: Degradation rate of the AR protein in VCaP cells, 100 nM (%).
Consider `COc1cc(O[C@H]2CC[C@H](NC(=O)c3ccc(N4CCC(CN5CCC6(CC5)COc5c6ccc6c5C(=O)N(C5CCC(=O)NC5=O)C6=O)(OC)CC4)cc3)CC2)ccc1C#N` (stereo partly drawn) [Compound 219], for which the inhibition at 0.1 µM was 70%.

Turning to `COc1cc(O[C@H]2C(C)(C)[C@H](NC(=O)c3ccc(N4CCC(C)(CN5CCC6(CC5)COc5c6ccc6c5CN(C5CCC(=O)NC5=O)C6=O)CC4)cc3)C2(C)C)ccc1C#N` (stereo partly drawn) [Compound 221], the inhibition at 0.1 µM was found to be 64%.

With `N#Cc1ccc(O[C@H]2CC[C@H](NC(=O)c3ccc(N4CCC(C#N)(CN5CCC6(CC5)COc5c6ccc6c5C(=O)N(C5CCC(=O)NC5=O)C6=O)CC4)nn3)CC2)cc1Cl` (stereo partly drawn) [Compound 227], the inhibition at 0.1 µM is 60%.

The next assay deals with LNCaP FGC cells. Description: Inhibition of proliferation of LNCaP cells (WST-8). In kind it is cell-based. The following applies: Homo sapiens, LNCaP, 96 h, LNCaP FGC cells, 96 hours, WST-8 absorbance at 450 nm; read-out: IC50 for inhibiting the proliferation of LNCaP cells. The protocol:
The cells were cultured in a cell culture incubator with 5% CO2 at 37° C. overnight. […] On the sixth day, 96 well plates were taken out, and 20 μL of WST-8 (Beytime, C0040) reagent was added to each well.
With `COc1cc(O[C@H]2C(C)(C)[C@H](NC(=O)c3ccc(N4CCC(C)(CN5CCC6(CC5)COc5c6ccc6c5CN(C5CCC(=O)NC5=O)C6=O)CC4)cc3)C2(C)C)ccc1C#N` (stereo partly drawn) [Compound 221], the IC50 worked out at 46 nM.

For the molecule `N#Cc1ccc(O[C@H]2CC[C@H](NC(=O)c3ccc(N4CCC(C#N)(CN5CCC6(CC5)COc5c6ccc6c5C(=O)N(C5CCC(=O)NC5=O)C6=O)CC4)nn3)CC2)cc1Cl` (stereo partly drawn) [Compound 227], the IC50 is 170 nM.

Staying with this assay, now noted: Homo sapiens, LNCaP, 96 h, read-out: IC50 for inhibiting the proliferation of LNCaP cells, LNCaP FGC cells, 96 hours, WST-8 absorbance at 450 nm.
Take `COc1cc(O[C@H]2CC[C@H](NC(=O)c3ccc(N4CCC(CN5CCC6(CC5)COc5c6ccc6c5C(=O)N(C5CCC(=O)NC5=O)C6=O)(OC)CC4)cc3)CC2)ccc1C#N` (stereo partly drawn) [Compound 219]: the IC50 stood at 260 nM.

Another assay has as its system VCaP cells. In words: Inhibition of proliferation of VCaP cells (WST-8). It counts as cell-based. The following applies: Homo sapiens, VCaP, 168 h, read-out: IC50 for inhibiting the proliferation of VCaP cells. The essentials:
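Proliferation was read by WST-8 on day nine. Cells were VCaP FGC, seeded at 15000 cells per well in 10% FBS DMEM and kept at 37° C with 5% CO2.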
`COc1cc(O[C@H]2CC[C@H](NC(=O)c3ccc(N4CCC(CN5CCC6(CC5)COc5c6ccc6c5C(=O)N(C5CCC(=O)NC5=O)C6=O)(OC)CC4)cc3)CC2)ccc1C#N` (stereo partly drawn) [Compound 219]: the IC50 was determined as 60 nM.

Still in this assay, the particulars now being: Homo sapiens; VCaP cells, 168 hours, WST-8 absorbance at 450 nm; read-out: IC50 for inhibiting the proliferation of VCaP cells.
Regarding `COc1cc(O[C@H]2C(C)(C)[C@H](NC(=O)c3ccc(N4CCC(C)(CN5CCC6(CC5)COc5c6ccc6c5CN(C5CCC(=O)NC5=O)C6=O)CC4)cc3)C2(C)C)ccc1C#N` (stereo partly drawn) [Compound 221], the IC50 was 1.5 nM.

Regarding `N#Cc1ccc(O[C@H]2CC[C@H](NC(=O)c3ccc(N4CCC(C#N)(CN5CCC6(CC5)COc5c6ccc6c5C(=O)N(C5CCC(=O)NC5=O)C6=O)CC4)nn3)CC2)cc1Cl` (stereo partly drawn) [Compound 227], the IC50 worked out at 30 nM.
